# Experimental data as given in patent US3995059A, “Pharmaceutical compositions containing fatty acid amide derivatives” (Sumitomo Chemical Company, Limited, priority 1966, dated 1976).
# Key:
# Rabbit serum cholesterol = Rabbit serum cholesterol lowering ratio after 9 weeks; type: in vivo; details: control 0%
# Serum cholesterol = Serum cholesterol of rabbits fed a cholesterol rich diet; type: in vivo; details: 200 mg/day with cholesterol rich diet
# [1] = Acute oral toxicity, LD50 (Table 2); details: in vivo, mouse, P.O.
# Experimental: The extremely low toxicities of the present acid-amide compounds are illustrated in Table 2, in which the acute toxicities of some of the present compounds in mice are listed.
# As is seen from Table 2, no fatal case and no significant toxic symptoms were observed even in such large doses (per os) as 0.5 g. per 10 g., namely 50 g./kg. of the body weight. Also, no significant toxic symptoms, or fatal cases, were observed when the amides in amounts of 1, 0.5 or 0.2% in the diet were administered to mice everyday for three weeks. The appetite was normal and digestive functions were unchanged. When the internal organs were inspected by dissection, there was no appreciable change.
# [2] = system: total cholesterol value in the blood serum; assay: Total cholesterol in blood serum of mice fed a diet enriched with cholesterol and bile acids (Table 1); type: in vivo; details: 0.2% in diet, oral, 8 to 12 days
# Experimental: The effectiveness of the compounds was tested by using mice fed on a specific diet which was enriched with cholesterol and bile acids. […] The amide compound as well was mixed with the specific diet in an amount of 0.2%, and continuously administered orally for 8 to 12 days. Then the total cholesterol value in the blood serum of the animals was evaluated.
# liver cholesterol = assay: Liver cholesterol (deposition of cholesterol and fat in the liver) of mice fed a cholesterol-rich diet (Table 1); type: in vivo; details: 0.2% in diet, oral, 8 to 12 days
# [3] = experiment [III], control not given
smiles,measurement,setting,value
CCCCC/C=C\C/C=C\CCCCCCCC(=O)NC(CC)c1ccc(C)cc1 (stereo not drawn) [drawing 146],Rabbit serum cholesterol Towering ratio (after 9 weeks),Rabbit serum cholesterol; 100 mg/kg/day,59.2%
"CC[C@H](CC[C@@H](C)[C@H]1CC[C@H]2[C@@H]3CC=C4C[C@@H](O)CC[C@]4(C)[C@H]3CC[C@]12C)C(C)C [β-Sitosterol, reference compound]",Serum cholesterol,"Serum cholesterol; 2 weeks, control 250",250 mg. %
same,Serum cholesterol,"Serum cholesterol; 4 weeks, control 563",438 mg. %
same,Serum cholesterol,"Serum cholesterol; 6 weeks, control 890",875 mg. %
same,Serum cholesterol,"Serum cholesterol; 8 weeks, control 1150",1063 mg. %
same,Serum cholesterol,"Serum cholesterol; 10 weeks, control 1750",1200 mg. %
same,Rabbit serum cholesterol Towering ratio (after 9 weeks),Rabbit serum cholesterol; 800 mg/kg/day,21.2%
CCCCC/C=C\C/C=C\CCCCCCCC(=O)NC(C)c1ccc(C)cc1 (stereo not drawn) [drawing 138],LD50,[1],> 50000 mg/kg
CCCCC/C=C\C/C=C\CCCCCCCC(=O)NC(C)c1ccc(Cl)cc1 (stereo not drawn) [drawing 147],Rabbit serum cholesterol Towering ratio (after 9 weeks),Rabbit serum cholesterol; 100 mg/kg/day,80.1%
CC/C=C\C/C=C\C/C=C\CCCCCCCC(=O)NC(C)c1cccc(Cl)c1 (stereo not drawn) [drawing 96],Serum cholesterol,"[2]; experiment [XI], control 595",300 mg %
same,Liver cholesterol,"liver cholesterol; experiment [XI], control 3451",1029 mg/100 g.
"CCCCC/C=C\C/C=C\CCCCCCCC(=O)NC(C)c1ccccc1 (single isomer, unassigned; (+)) [(+) N-(α-Methylbenzyl)-linoleamide]",Serum cholesterol,"[2]; experiment [I], control 546",267 mg %
same,Liver cholesterol,"liver cholesterol; experiment [I], control 3585",764 mg/100 g.
CCCCC/C=C\C/C=C\CCCCCCCC(=O)NC(CC)c1ccc(C)cc1 (stereo not drawn) [drawing 21],Serum cholesterol,"[2]; experiment [III], control 471",242 mg %
same,Liver cholesterol,liver cholesterol; [3],1065 mg/100 g.
CCCCCCCC/C=C\CCCCCCCC(=O)NC(CC)c1cccc([N+](=O)[O-])c1 (racemic),Serum cholesterol,"[2]; experiment [XI], control 595",362 mg %
same,Liver cholesterol,"liver cholesterol; experiment [XI], control 3451",1342 mg/100 g.
CCCCC/C=C\C/C=C\CCCCCCCC(=O)NC(C)c1ccc(Cl)cc1 (stereo not drawn) [drawing 72],Serum cholesterol,"[2]; experiment [XI], control 595",230 mg %
same,Liver cholesterol,"liver cholesterol; experiment [XI], control 3451",845 mg/100 g.
"CCCCC/C=C\C/C=C\CCCCCCCC(=O)NC(C)c1ccccc1 (single isomer, unassigned; (-)) [(-) (α-Methylbenzyl)-linoleamide]",Serum cholesterol,"[2]; experiment [II], control 521",286 mg %
same,Liver cholesterol,"liver cholesterol; experiment [II], control 3308",908 mg/100 g.
CC/C=C\C/C=C\C/C=C\CCCCCCCC(=O)NC(CC)c1ccc([N+](=O)[O-])cc1 (stereo not drawn) [drawing 97],Serum cholesterol,"[2]; experiment [XI], control 595",245 mg %
same,Liver cholesterol,"liver cholesterol; experiment [XI], control 3451",1004 mg/100 g.
CCCCC/C=C\C/C=C\CCCCCCCC(=O)NC(C)c1ccc([N+](=O)[O-])cc1 (stereo not drawn) [drawing 74],Serum cholesterol,"[2]; experiment [XI], control 595",315 mg %
same,Liver cholesterol,"liver cholesterol; experiment [XI], control 3451",1098 mg/100 g.
CCCCC/C=C\C/C=C\CCCCCCCC(=O)NC(C)c1ccc(Br)cc1 (stereo not drawn),Serum cholesterol,"[2]; experiment [III], control 471",322 mg %
same,Liver cholesterol,liver cholesterol; [3],1341 mg/100 g.
CC/C=C\C/C=C\C/C=C\CCCCCCCC(=O)NC(Cc1ccccc1)c1ccccc1 (stereo not drawn) [drawing 99],Serum cholesterol,"[2]; experiment [XI], control 595",240 mg %
same,Liver cholesterol,"liver cholesterol; experiment [XI], control 3451",623 mg/100 g.
CCCCCC=CCC=CCCCCCCCC(=O)NC(Cc1ccccc1)c1ccccc1 (stereo not drawn) [C17 H31 CO],Serum cholesterol,"[2]; experiment [V], control 372",214 mg %
same,Liver cholesterol,"liver cholesterol; experiment [V], control 2640",544 mg/100 g.
CCCCCC=CCC=CCCCCCCCC(=O)NC(Cc1ccccc1)c1ccccc1 (stereo not drawn) [l- C17 H31 CO],Serum cholesterol,"[2]; experiment [V], control 372",208 mg %
same,Liver cholesterol,"liver cholesterol; experiment [V], control 2640",623 mg/100 g.
CCCCCCCCCCCCCCCC(=O)NC(C)c1ccccc1 (stereo not drawn) [drawing 12],Serum cholesterol,"[2]; experiment [II], control 521",314 mg %
same,Liver cholesterol,"liver cholesterol; experiment [II], control 3308",1160 mg/100 g.
CCCCC/C=C\C/C=C\CCCCCCCC(=O)NC(Cc1ccccc1)c1ccccc1 (stereo not drawn),LD50,[1],> 50000 mg/kg
CCCCCCCC/C=C\CCCCCCCC(=O)NC12CC3CC(CC(C3)C1)C2,Serum cholesterol,"[2]; experiment [IX], control 336",294 mg %
same,Liver cholesterol,"liver cholesterol; experiment [IX], control 2200",1120 mg/100 g.
CCCCC/C=C\C/C=C\CCCCCCCC(=O)NC(C)c1ccccc1[N+](=O)[O-] (stereo not drawn),Serum cholesterol,"[2]; experiment [VIII], control 472",299 mg %
same,Liver cholesterol,"liver cholesterol; experiment [VIII], control 2652",1003 mg/100 g.
CCCCCCCC/C=C\CCCCCCCC(=O)NC(C)c1ccc(Br)cc1 (stereo not drawn) [drawing 79],Serum cholesterol,"[2]; experiment [XI], control 595",277 mg %
same,Liver cholesterol,"liver cholesterol; experiment [XI], control 3451",1009 mg/100 g.
CCCCC/C=C\C/C=C\CCCCCCCC(=O)NC12CC3CC(CC(C3)C1)C2 [drawing 140],LD50,[1],> 50000 mg/kg
CCCCC/C=C\C/C=C\CCCCCCCC(=O)NC(C)c1ccc([N+](=O)[O-])cc1 (stereo not drawn) [drawing 73],Serum cholesterol,"[2]; experiment [XI], control 595",275 mg %
same,Liver cholesterol,"liver cholesterol; experiment [XI], control 3451",1011 mg/100 g.
CC/C=C\C/C=C\C/C=C\CCCCCCCC(=O)NC(Cc1ccccc1)c1ccccc1 (stereo not drawn) [drawing 100],Serum cholesterol,"[2]; experiment [XI], control 595",275 mg %
same,Liver cholesterol,"liver cholesterol; experiment [XI], control 3451",1632 mg/100 g.
CCCCCCCC/C=C\CCCCCCCC(=O)NC(C)c1ccc(OC)cc1 (stereo not drawn) [drawing 85],Serum cholesterol,"[2]; experiment [XI], control 595",318 mg %
same,Liver cholesterol,"liver cholesterol; experiment [XI], control 3451",1115 mg/100 g.
CCCCC/C=C\C/C=C\CCCCCCCC(=O)NC12CC3CC(CC(C3)C1)C2 [drawing 53],Serum cholesterol,"[2]; experiment [IX], control 336",288 mg %
same,Liver cholesterol,"liver cholesterol; experiment [IX], control 2200",721 mg/100 g.
CCCCC/C=C\C/C=C\CCCCCCCC(=O)NC(C)c1ccccc1 (stereo not drawn) [drawing 144],Serum cholesterol,"Serum cholesterol; 2 weeks, control 250",250 mg. %
same,Serum cholesterol,"Serum cholesterol; 4 weeks, control 563",130 mg. %
same,Serum cholesterol,"Serum cholesterol; 6 weeks, control 890",65 mg. %
same,Serum cholesterol,"Serum cholesterol; 8 weeks, control 1150",60 mg. %
same,Serum cholesterol,"Serum cholesterol; 10 weeks, control 1750",52 mg. %
CCCCC/C=C\C/C=C\CCCCCCCC(=O)NC(CC)c1ccccc1 (stereo not drawn) [drawing 13],Serum cholesterol,"[2]; experiment [II], control 521",274 mg %
same,Liver cholesterol,"liver cholesterol; experiment [II], control 3308",992 mg/100 g.
CCCCCCCC/C=C\CCCCCCCC(=O)NC(Cc1ccccc1)c1ccccc1 (stereo not drawn) [d- drawing 33],Serum cholesterol,"[2]; experiment [V], control 372",222 mg %
same,Liver cholesterol,"liver cholesterol; experiment [V], control 2640",729 mg/100 g.
CC/C=C\C/C=C\C/C=C\CCCCCCCC(=O)NC(Cc1ccccc1)c1ccccc1 (stereo not drawn) [drawing 32],Serum cholesterol,"[2]; experiment [V], control 372",238 mg %
same,Liver cholesterol,"liver cholesterol; experiment [V], control 2640",729 mg/100 g.
CCCCC/C=C\C/C=C\CCCCCCCC(=O)NC(C)c1ccc(Cl)c(Cl)c1 (stereo not drawn) [drawing 18],Serum cholesterol,"[2]; experiment [III], control 471",315 mg %
same,Liver cholesterol,liver cholesterol; [3],856 mg/100 g.
CCCCC/C=C\C/C=C\CCCCCCCC(=O)NC(C)c1ccccc1 (stereo not drawn) [drawing 136],LD50,[1],> 50000 mg/kg
"CCCCCCCC/C=C\CCCCCCCC(=O)NC(C)c1ccccc1 (single isomer, unassigned; (+)) [(+) N-(α-Methylbenzyl)-oleamide]",Serum cholesterol,"[2]; experiment [I], control 546",288 mg %
same,Liver cholesterol,"liver cholesterol; experiment [I], control 3585",797 mg/100 g.
CCCCC/C=C\C/C=C\CCCCCCCC(=O)NC(C)c1ccc(Cl)c(Cl)c1 (stereo not drawn) [drawing 148],Rabbit serum cholesterol Towering ratio (after 9 weeks),Rabbit serum cholesterol; 100 mg/kg/day,61.5%
CCCCCCCCCCCCCC(=O)NC(C)c1ccccc1 (stereo not drawn) [drawing 10],Serum cholesterol,"[2]; experiment [II], control 521",252 mg %
same,Liver cholesterol,"liver cholesterol; experiment [II], control 3308",1820 mg/100 g.
CC/C=C\C/C=C\C/C=C\CCCCCCCC(=O)NC(CC)c1ccc(OC)cc1 (stereo not drawn) [drawing 103],Serum cholesterol,"[2]; experiment [XI], control 595",339 mg %
same,Liver cholesterol,"liver cholesterol; experiment [XI], control 3451",1620 mg/100 g.
"CC/C=C\C/C=C\C/C=C\CCCCCCCC(=O)NC(C)c1ccccc1 (single isomer, unassigned; (-)) [(-) (α-Methylbenzyl)-linolenamide]",Serum cholesterol,"[2]; experiment [II], control 521",253 mg %
same,Liver cholesterol,"liver cholesterol; experiment [II], control 3308",767 mg/100 g.
"CCCCC/C=C\C/C=C\CCCCCCCC(=O)N(C1CCCCC1)C1CCCCC1 [N,N-dicyclohexyl linoleamide]",Serum cholesterol,"Serum cholesterol; 2 weeks, control 250",250 mg. %
same,Serum cholesterol,"Serum cholesterol; 4 weeks, control 563",120 mg. %
same,Serum cholesterol,"Serum cholesterol; 6 weeks, control 890",62 mg. %
same,Serum cholesterol,"Serum cholesterol; 8 weeks, control 1150",62 mg. %
same,Serum cholesterol,"Serum cholesterol; 10 weeks, control 1750",65 mg. %
CCCCC/C=C\C/C=C\CCCCCCCC(=O)NC(C)c1ccc(C)cc1 (stereo not drawn) [drawing 145],Rabbit serum cholesterol Towering ratio (after 9 weeks),Rabbit serum cholesterol; 100 mg/kg/day,60.1%
CC/C=C\C/C=C\C/C=C\CCCCCCCC(=O)NC(C)c1ccccc1C (stereo not drawn) [drawing 151],Rabbit serum cholesterol Towering ratio (after 9 weeks),Rabbit serum cholesterol; 100 mg/kg/day,54.5%
